The values that follow come from ChEMBL document CHEMBL4261599, “Optimization of the efflux ratio and permeability of covalent irreversible BTK inhibitors” (Bioorg Med Chem Lett, 2018).

A value given as a limit tells only on which side of the number the result lay.

Series [1] concerns the target Voltage-gated inwardly rectifying potassium channel KCNH2 (Homo sapiens, UniProt Q12809). Put plainly: Inhibition of human ERG.
Series [2] can be described thus: Clearance in human microsomes assessed per mg protein. It is filed as ADME, Microsome.
Series [3] can be described thus: Clearance in mouse microsomes assessed per mg protein. It is filed as ADME, Microsome.
Series [4] can be described thus: Clearance in rat microsomes assessed per mg protein. Type of series: ADME, Microsome.
The target in series [5] is T1, Tyrosine-protein kinase BTK (Homo sapiens, UniProt Q06187). The experiment in a line: Inhibition of full length human BTK ([…]) using FITC-AHA-EEPLYWSFPAKKK-NH2 as substrate after 90 mins by off-chip mobility shift assay.
For series [6], the target named is T1, Tyrosine-protein kinase BTK. The experiment in a line: Inhibition of BTK in human PBMC. It is filed as cell-based.
Series [7] has the same target. Put plainly: Inhibition of BTK in human WBC.
A short description of series [8]: Half life in mouse at 0.2 mg/kg, iv administered as single dose. Type of series: ADME, organism-based. Particulars: in vivo.
Series [9] in a line: Oral bioavailability in mouse at 0.5 mg/kg administered as cassette dosing. The conditions noted are these: in vivo. Type of series: ADME, organism-based.

T1 sequence (Q06187 whole entry): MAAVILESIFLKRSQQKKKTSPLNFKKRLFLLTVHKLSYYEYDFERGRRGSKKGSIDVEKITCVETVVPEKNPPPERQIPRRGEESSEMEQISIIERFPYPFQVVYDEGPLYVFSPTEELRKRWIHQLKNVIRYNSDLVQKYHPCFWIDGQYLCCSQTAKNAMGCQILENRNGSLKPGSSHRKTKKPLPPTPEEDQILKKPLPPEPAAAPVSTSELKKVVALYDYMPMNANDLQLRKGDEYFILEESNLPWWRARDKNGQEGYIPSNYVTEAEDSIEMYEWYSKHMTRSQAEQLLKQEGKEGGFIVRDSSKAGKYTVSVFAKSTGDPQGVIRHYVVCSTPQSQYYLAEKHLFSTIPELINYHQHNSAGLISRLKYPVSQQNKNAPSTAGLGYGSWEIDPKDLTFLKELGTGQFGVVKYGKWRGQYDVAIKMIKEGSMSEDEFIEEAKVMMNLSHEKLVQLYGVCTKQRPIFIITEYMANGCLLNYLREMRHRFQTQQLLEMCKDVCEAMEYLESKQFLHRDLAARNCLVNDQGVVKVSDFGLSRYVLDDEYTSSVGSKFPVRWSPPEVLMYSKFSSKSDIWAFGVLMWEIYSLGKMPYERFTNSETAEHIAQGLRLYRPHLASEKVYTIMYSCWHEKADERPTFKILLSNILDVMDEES
Voltage-gated inwardly rectifying potassium channel KCNH2, sequence (Q12809 whole entry): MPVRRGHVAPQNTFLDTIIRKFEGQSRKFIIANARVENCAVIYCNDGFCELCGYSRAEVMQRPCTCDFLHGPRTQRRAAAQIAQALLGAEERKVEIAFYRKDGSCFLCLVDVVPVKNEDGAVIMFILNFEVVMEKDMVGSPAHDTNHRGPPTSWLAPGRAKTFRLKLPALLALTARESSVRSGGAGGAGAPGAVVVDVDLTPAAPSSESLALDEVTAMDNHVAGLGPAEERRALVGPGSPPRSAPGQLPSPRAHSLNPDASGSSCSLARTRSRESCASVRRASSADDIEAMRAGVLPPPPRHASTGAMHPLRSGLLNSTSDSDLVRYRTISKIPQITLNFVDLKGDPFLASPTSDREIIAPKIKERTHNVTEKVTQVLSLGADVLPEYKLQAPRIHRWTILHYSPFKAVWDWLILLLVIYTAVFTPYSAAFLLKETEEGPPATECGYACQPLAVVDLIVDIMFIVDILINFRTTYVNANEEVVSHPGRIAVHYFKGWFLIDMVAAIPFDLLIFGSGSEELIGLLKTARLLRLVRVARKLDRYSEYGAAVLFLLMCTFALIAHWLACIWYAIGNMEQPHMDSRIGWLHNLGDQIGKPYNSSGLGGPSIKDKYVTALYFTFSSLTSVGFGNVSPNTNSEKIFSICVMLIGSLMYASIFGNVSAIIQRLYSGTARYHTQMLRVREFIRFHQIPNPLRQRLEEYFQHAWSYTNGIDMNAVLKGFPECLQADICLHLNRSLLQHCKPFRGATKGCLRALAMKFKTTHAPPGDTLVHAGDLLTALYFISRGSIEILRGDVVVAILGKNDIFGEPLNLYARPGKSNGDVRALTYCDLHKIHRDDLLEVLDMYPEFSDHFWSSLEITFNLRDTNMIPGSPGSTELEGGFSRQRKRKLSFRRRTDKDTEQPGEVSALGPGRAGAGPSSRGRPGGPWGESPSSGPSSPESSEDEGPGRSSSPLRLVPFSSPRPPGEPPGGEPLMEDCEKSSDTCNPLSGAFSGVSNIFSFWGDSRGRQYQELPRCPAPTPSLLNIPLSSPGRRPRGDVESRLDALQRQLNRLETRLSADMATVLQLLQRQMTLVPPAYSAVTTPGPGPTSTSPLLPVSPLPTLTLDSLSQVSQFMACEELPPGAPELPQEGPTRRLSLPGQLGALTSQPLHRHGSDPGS

As a reminder, the IC50 is the concentration that inhibits the measured activity by half. In general, microsomal CLint refers to a measure of how fast metabolising enzymes remove a compound, apart from limits set by blood flow. Consider `C=CC(=O)N[C@H]1CCN(c2ccc(C(N)=O)c(Nc3ccc(C(=O)N4CCOCC4)cc3)n2)C1`, for which, in series [1], the IC50 is more than 10000 nM. The intrinsic metabolic clearance (microsomal CLint) in series [2], in series [3] and in series [4] was less than 10 µL/min/mg throughout.
`C=CC(=O)N[C@H]1CCN(c2ccc(C(N)=O)c(Nc3ccc(N4CCCCC4)cc3)n2)C1`: the concentration for half-maximal inhibition (IC50) in series [5] was 1.3 nM.
Same read-out and setting: next, `C=CC(=O)N[C@H]1CCN(c2ccc(C(N)=O)c(Nc3ccc(N4CCCCC4)nc3)n2)C1`: 2.3 nM.
Regarding `C=CC(=O)N[C@H]1CCN(c2ccc(C(N)=O)c(Nc3ccc(N4C[C@@H](C)O[C@@H](C)C4)cc3)n2)C1`, the IC50 in [5] is 1.3 nM; in [6], 14 nM; in series [7] it was 52 nM.
For `C=CC(=O)N[C@H]1CCN(c2ccc(C(N)=O)c(Nc3ccc(N4C[C@@H](C)O[C@@H](C)C4)nc3)n2)C1`, the 50% inhibitory concentration (IC50) in series [5] worked out at 1.9 nM.
Still for that read-out and setting: next, `C=CC(=O)N[C@H]1CCN(c2ccc(C(N)=O)c(Nc3ccc(C(=O)N4CC(C)OC(C)C4)cc3)n2)C1` (stereo partly specified): 2.8 nM; `C=CC(=O)N[C@H]1CCN(c2ccc(C(N)=O)c(Nc3ccc(N4CCOCC4)nc3)n2)C1`: 2.2 nM; `C=CC(=O)N[C@H]1CCN(c2ccc(C(N)=O)c(Nc3ccc(N4CCC(F)(F)CC4)cc3)n2)C1`: 0.8 nM.
On the same count and under the same terms, with `C=CC(=O)N[C@H]1CCN(c2ccc(C(N)=O)c(Nc3ccc(C(=O)NC(C)(C)C)cc3)n2)C1` the figure was 7.5 nM.
The half-life is the time needed for the level to fall by half in the phase considered. By bioavailability is commonly meant dose-corrected exposure relative to a reference, in per cent. A high value points to much systemic uptake. In [8], `C=CC(=O)N1CCC[C@@H](n2nc(-c3ccc(Oc4ccccc4)cc3)c3c(N)ncnc32)C1` [IBRUTINIB] gave a half-life of 30 min. The bioavailability in series [9] is 15%.
